Converted amounts (≈) assume the structure as drawn. The source made the active and inactive calls. No cut-off for these calls is given here.

Common to all, as to format: functional
Assay [1] in a line: Antifungal activity against Monilia albican ATCC 10231 after 24 to 72 hrs by NCCLS method.
A further assay relates to Escherichia coli. In words: Antibacterial activity against Escherichia coli ATCC 8099 after 24 hrs by NCCLS method.
The test system of a further assay is Staphylococcus aureus. In words: Antibacterial activity against Staphylococcus aureus ATCC 6538 after 24 hrs by NCCLS method.

In assay [1], `CC(=O)OC[C@H]1O[C@@H](Sc2nnc(-c3ccccc3)n2/N=C/c2cc(Cl)ccc2O)[C@H](OC(C)=O)[C@@H](OC(C)=O)[C@@H]1OC(C)=O` returned an MFC of 32 µg/mL (≈ 48.4 µM) and an MIC of 16 µg/mL (≈ 24.2 µM). For the same molecule, in the assay on Escherichia coli (ATCC 8099, 24 h), the MBC was 128 µg/mL (≈ 194 µM) and the MIC was 128 µg/mL (≈ 194 µM). In the assay with Staphylococcus aureus (ATCC 6538, 24 h), this molecule came in with an MBC of 128 µg/mL (≈ 194 µM) and an MIC of 64 µg/mL (≈ 96.8 µM).
Regarding GENTAMICIN, the minimum fungicidal concentration (MFC) in assay [1] turned out to be 4 µg/mL. The MIC was 4 µg/mL in assay [1], 2 µg/mL against Escherichia coli and 2 µg/mL against Staphylococcus aureus. The MBC against Escherichia coli turned out to be 4 µg/mL; in the assay with Staphylococcus aureus, 2 µg/mL.
The molecule `CC(=O)OC[C@H]1O[C@@H](Sc2nnc(-c3ccccc3)n2/N=C/c2ccccc2Cl)[C@H](OC(C)=O)[C@@H](OC(C)=O)[C@@H]1OC(C)=O` had an MFC in assay [1] of 64 µg/mL (≈ 99.2 µM). The MIC in assay [1] is 64 µg/mL (≈ 99.2 µM); in the assay on Escherichia coli (ATCC 8099, 24 h), 128 µg/mL (≈ 198 µM); with Staphylococcus aureus (ATCC 6538, 24 h), 128 µg/mL (≈ 198 µM). The MBC in the assay with Escherichia coli (ATCC 8099, 24 h) stood at 128 µg/mL (≈ 198 µM); with Staphylococcus aureus (ATCC 6538, 24 h), 128 µg/mL (≈ 198 µM).
In assay [1], `CC(=O)OC[C@H]1O[C@@H](Sc2nnc(-c3ccccc3)n2/N=C/c2cc(Br)ccc2O)[C@H](OC(C)=O)[C@@H](OC(C)=O)[C@@H]1OC(C)=O` gave an MFC of 16 µg/mL (≈ 22.7 µM) and a minimum inhibitory concentration (MIC) of 16 µg/mL (≈ 22.7 µM). In the assay on Escherichia coli (ATCC 8099, 24 h), the MBC is 128 µg/mL (≈ 181 µM) and the minimum inhibitory concentration (MIC) came out at 128 µg/mL (≈ 181 µM). In the assay with Staphylococcus aureus (ATCC 6538, 24 h), this molecule registered an MBC of 32 µg/mL (≈ 45.4 µM) and an MIC of 32 µg/mL (≈ 45.4 µM).
Consider `Oc1cc(Cl)ccc1Oc1ccc(Cl)cc1Cl` [TRICLOSAN], for which, in assay [1], the MFC is 64 µg/mL (≈ 221 µM). Further, the MIC in assay [1] was found to be 32 µg/mL (≈ 111 µM); with Escherichia coli (ATCC 8099, 24 h), 2 µg/mL (≈ 6.91 µM); with Staphylococcus aureus (ATCC 6538, 24 h) it was 4 µg/mL (≈ 13.8 µM). For the same molecule, the MBC worked out at 4 µg/mL (≈ 13.8 µM) in the assay with Escherichia coli (ATCC 8099, 24 h) and 4 µg/mL (≈ 13.8 µM) against Staphylococcus aureus (ATCC 6538, 24 h).
Turning to `CC(=O)OC[C@H]1O[C@@H](Sc2nnc(-c3ccccc3O)n2/N=C/c2ccccc2O)[C@H](OC(C)=O)[C@@H](OC(C)=O)[C@@H]1OC(C)=O`, in assay [1], the MFC was 64 µg/mL (≈ 99.6 µM) and the lowest concentration to inhibit growth (MIC) was 64 µg/mL (≈ 99.6 µM). In the assay on Escherichia coli (ATCC 8099, 24 h), this molecule yielded an MBC of 64 µg/mL (≈ 99.6 µM) and an MIC of 64 µg/mL (≈ 99.6 µM). In the assay with Staphylococcus aureus (ATCC 6538, 24 h), the MBC is 128 µg/mL (≈ 199 µM) and the MIC worked out at 128 µg/mL (≈ 199 µM).
With `CC(=O)OC[C@H]1O[C@@H](Sc2nnc(-c3ccccc3O)n2/N=C/c2cc(Br)cc(Br)c2O)[C@H](OC(C)=O)[C@@H](OC(C)=O)[C@@H]1OC(C)=O`, in assay [1], the MFC came to 32 µg/mL (≈ 40 µM) and the lowest concentration to inhibit growth (MIC) was 16 µg/mL (≈ 20 µM). Besides, in the assay on Escherichia coli (ATCC 8099, 24 h), the MBC amounted to 16 µg/mL (≈ 20 µM) and 16 µg/mL (≈ 20 µM) was the least that counted as inhibitory (MIC). In the assay on Staphylococcus aureus (ATCC 6538, 24 h), this molecule gave an MBC of 32 µg/mL (≈ 40 µM) and an MIC of 32 µg/mL (≈ 40 µM).
In assay [1], `CC(=O)OC[C@H]1O[C@@H](Sc2nnc(-c3ccccc3)n2/N=C/c2ccccc2)[C@H](OC(C)=O)[C@@H](OC(C)=O)[C@@H]1OC(C)=O` came in with an MFC of 64 µg/mL (≈ 105 µM) and an MIC of 32 µg/mL (≈ 52.4 µM). In addition, in the assay with Escherichia coli (ATCC 8099, 24 h), the MBC was determined as 128 µg/mL (≈ 210 µM) and it took 128 µg/mL (≈ 210 µM) to inhibit growth (MIC). In the assay with Staphylococcus aureus (ATCC 6538, 24 h), the MBC stood at 64 µg/mL (≈ 105 µM) and inhibition of growth (MIC) required 64 µg/mL (≈ 105 µM).
Turning to `CC(=O)OC[C@H]1O[C@@H](Sc2nnc(-c3ccccc3O)n2/N=C/c2ccccc2)[C@H](OC(C)=O)[C@@H](OC(C)=O)[C@@H]1OC(C)=O`, the minimum fungicidal concentration (MFC) in assay [1] turned out to be 32 µg/mL (≈ 51.1 µM). The MIC was determined as 32 µg/mL (≈ 51.1 µM) in assay [1]; 128 µg/mL (≈ 204 µM) with Escherichia coli (ATCC 8099, 24 h); 128 µg/mL (≈ 204 µM) against Staphylococcus aureus (ATCC 6538, 24 h). Moreover, the MBC was 256 µg/mL (≈ 409 µM) against Escherichia coli (ATCC 8099, 24 h) and 256 µg/mL (≈ 409 µM) in the assay on Staphylococcus aureus (ATCC 6538, 24 h).
For the molecule `CC(=O)OC[C@H]1O[C@@H](Sc2nnc(-c3ccccc3)n2/N=C/c2cc(Br)cc(Br)c2O)[C@H](OC(C)=O)[C@@H](OC(C)=O)[C@@H]1OC(C)=O`, the minimum fungicidal concentration (MFC) in assay [1] was 16 µg/mL (≈ 20.4 µM). The MIC was 16 µg/mL (≈ 20.4 µM) in assay [1]; 16 µg/mL (≈ 20.4 µM) against Escherichia coli (ATCC 8099, 24 h); 16 µg/mL (≈ 20.4 µM) with Staphylococcus aureus (ATCC 6538, 24 h). Further, the MBC was found to be 16 µg/mL (≈ 20.4 µM) in the assay on Escherichia coli (ATCC 8099, 24 h) and 32 µg/mL (≈ 40.8 µM) against Staphylococcus aureus (ATCC 6538, 24 h).
On to `CC(=O)OC[C@H]1O[C@@H](Sc2nnc(-c3ccccc3O)n2/N=C/c2cc(Br)ccc2O)[C@H](OC(C)=O)[C@@H](OC(C)=O)[C@@H]1OC(C)=O`, for which the MFC in assay [1] worked out at 16 µg/mL (≈ 22.2 µM). The MIC in assay [1] was 16 µg/mL (≈ 22.2 µM); in the assay with Escherichia coli (ATCC 8099, 24 h) it was 128 µg/mL (≈ 177 µM); against Staphylococcus aureus (ATCC 6538, 24 h), 64 µg/mL (≈ 88.7 µM). The MBC was 128 µg/mL (≈ 177 µM) with Escherichia coli (ATCC 8099, 24 h) and 128 µg/mL (≈ 177 µM) against Staphylococcus aureus (ATCC 6538, 24 h).
Consider `OC(Cn1cncn1)(Cn1cncn1)c1ccc(F)cc1F` [FLUCONAZOLE], for which the MFC in assay [1] stood at 4 µg/mL (≈ 13.1 µM). Besides, the MIC in assay [1] stood at 2 µg/mL (≈ 6.53 µM); in the assay with Escherichia coli (ATCC 8099, 24 h), 128 µg/mL (≈ 418 µM); against Staphylococcus aureus (ATCC 6538, 24 h), 16 µg/mL (≈ 52.2 µM). Further, the MBC in the assay with Escherichia coli (ATCC 8099, 24 h) amounted to 128 µg/mL (≈ 418 µM); in the assay with Staphylococcus aureus (ATCC 6538, 24 h) it was 32 µg/mL (≈ 104 µM).
For `CC(=O)OC[C@H]1O[C@@H](Sc2nnc(-c3ccccc3O)n2/N=C/c2ccccc2Cl)[C@H](OC(C)=O)[C@@H](OC(C)=O)[C@@H]1OC(C)=O`, in assay [1], the MFC came to 64 µg/mL (≈ 96.8 µM) and 32 µg/mL (≈ 48.4 µM) was the least that counted as inhibitory (MIC). For the same molecule, in the assay on Escherichia coli (ATCC 8099, 24 h), the MBC came out at 128 µg/mL (≈ 194 µM) and the MIC came to 128 µg/mL (≈ 194 µM). In the assay on Staphylococcus aureus (ATCC 6538, 24 h), this molecule registered a minimum bactericidal concentration (MBC) of 128 µg/mL (≈ 194 µM) and an MIC of 128 µg/mL (≈ 194 µM).
In assay [1], `CC(=O)OC[C@H]1O[C@@H](Sc2nnc(-c3ccccc3O)n2/N=C/c2cc(Cl)ccc2O)[C@H](OC(C)=O)[C@@H](OC(C)=O)[C@@H]1OC(C)=O` returned an MFC of 32 µg/mL (≈ 47.3 µM). In addition, the MIC in assay [1] was found to be 16 µg/mL (≈ 23.6 µM); against Escherichia coli (ATCC 8099, 24 h) it was 128 µg/mL (≈ 189 µM); in the assay with Staphylococcus aureus (ATCC 6538, 24 h), 128 µg/mL (≈ 189 µM). In addition, the MBC is 256 µg/mL (≈ 378 µM) against Escherichia coli (ATCC 8099, 24 h) and 128 µg/mL (≈ 189 µM) in the assay on Staphylococcus aureus (ATCC 6538, 24 h).
With `CC(=O)OC[C@H]1O[C@@H](Sc2nnc(-c3ccccc3)n2/N=C/c2ccccc2O)[C@H](OC(C)=O)[C@@H](OC(C)=O)[C@@H]1OC(C)=O`, in assay [1], the minimal fungicidal concentration (MFC) was determined as 64 µg/mL (≈ 102 µM) and the MIC was determined as 32 µg/mL (≈ 51.1 µM). Further, in the assay with Escherichia coli, the MBC entry was “inactive” and the MIC entry was “inactive”. In the assay on Staphylococcus aureus (ATCC 6538, 24 h), this molecule had an MBC of 128 µg/mL (≈ 204 µM) and an MIC of 64 µg/mL (≈ 102 µM).

Usually MFC stands for the lowest tested concentration that kills the fungus rather than only halting it. The term MIC denotes the least concentration at which growth counts as inhibited. A word on the MBC: it is the lowest tested concentration that kills the bacteria rather than only halting them.

Source of the values: ChEMBL document CHEMBL2346514, “Efficient synthesis and antimicrobial activity of some novel S-β-d-glucosides of 5-aryl-1,2,4-triazole-3-thiones derivatives” (2013).
